Experiments:
[1] = target: Cannabinoid receptor (Rattus norvegicus, UniProt Q9QZN9+P20272); assay: Concentration required to displace 50% of 0.5 nM [3H](aminoalkyl)indole binding to cannabinoid receptor in rat cerebellum membranes; assay type: cell membranes, Membrane
[2] = organism: Mus musculus; assay: Inhibitory activity against PG synthesis was measured in mouse brain microsomes.; assay type: functional
[3] = organism: Mus musculus; assay: In vitro inhibition of electrically stimulated contractions of isolated mouse vas deferens.; assay type: functional
[4] = organism: Mus musculus; assay: Inhibitory activity against PG synthesis was measured in mouse brain microsomes at 30 uM; assay type: functional
[5] = organism: Mus musculus; assay: In vitro inhibition of electrically stimulatedcontradions was measured on isolated mouse vas deferens at 10 uM; assay type: functional
[6] = target: Cannabinoid receptor (Rattus norvegicus) (UniProt Q9QZN9+P20272); conditions: Cerebellum; Membrane; at 1 µM
Sequence of Cannabinoid receptor (Rattus norvegicus) (P20272 whole entry, looked up): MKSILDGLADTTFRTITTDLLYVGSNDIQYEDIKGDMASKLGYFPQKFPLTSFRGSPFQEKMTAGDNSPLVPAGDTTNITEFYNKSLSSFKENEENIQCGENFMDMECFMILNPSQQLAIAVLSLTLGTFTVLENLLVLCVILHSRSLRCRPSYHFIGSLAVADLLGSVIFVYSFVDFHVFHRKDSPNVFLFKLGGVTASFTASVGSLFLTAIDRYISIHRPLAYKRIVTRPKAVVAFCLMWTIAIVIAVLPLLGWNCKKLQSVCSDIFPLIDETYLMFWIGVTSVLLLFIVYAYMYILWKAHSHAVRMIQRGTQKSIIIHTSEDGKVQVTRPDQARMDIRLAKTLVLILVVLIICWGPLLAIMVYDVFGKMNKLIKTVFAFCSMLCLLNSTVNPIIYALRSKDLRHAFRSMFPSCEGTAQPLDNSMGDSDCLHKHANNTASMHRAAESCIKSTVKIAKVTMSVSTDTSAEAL
Sequence of Cannabinoid receptor (Rattus norvegicus) (Q9QZN9 whole entry, looked up): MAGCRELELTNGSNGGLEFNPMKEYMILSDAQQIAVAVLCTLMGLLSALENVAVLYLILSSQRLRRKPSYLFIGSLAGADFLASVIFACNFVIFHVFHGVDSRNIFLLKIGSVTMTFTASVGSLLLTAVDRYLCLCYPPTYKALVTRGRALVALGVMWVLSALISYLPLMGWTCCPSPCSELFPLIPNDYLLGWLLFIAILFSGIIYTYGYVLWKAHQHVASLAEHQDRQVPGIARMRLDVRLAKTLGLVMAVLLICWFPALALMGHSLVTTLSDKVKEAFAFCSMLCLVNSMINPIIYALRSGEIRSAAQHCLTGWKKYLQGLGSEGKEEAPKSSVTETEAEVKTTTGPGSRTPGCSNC
Description: Inhibition of 0.5 nM [3H](Aminoalkyl)indole binding to cannabinoid receptor in rat cerebellum membranes at 1 uM

[7] = test system: Mus musculus; assay: In vivo antinociceptive effect was tested in the mouse acetylcholine writhing assay after po administration; assay type: functional
[8] = test system: Mus musculus; assay: In Vivo antinociceptive effect was tested in the mouse acetylcholine writhing assay after 100 mg/kg po administration; assay type: functional
[9] = test system: Mus musculus; assay: In vivo antinociceptive effect was tested in the mouse acetylcholine writhing assay after 100 mg/kg po administration; assay type: functional
[10] = test system: Mus musculus; assay: (§1) in vivo antinociceptive effect was tested in the mouse acetylcholine writhing assay after iv administration; assay type: functional
[11] = test system: Mus musculus; assay: as §1; assay type: functional, organism-based

Structure (SMILES)	IC50 [1] [nM]	IC50 [2] [nM]	IC50 ([3]; Mus musculus) [nM]	also measured
Cc1c(C(=O)c2ccc3ncccc3c2)c2cccc3c2n1C(CN1CCOCC1)CO3 (centres undefined)	132.5	26000	21	–
COc1ccc(C(=O)c2c3n(c4ccccc24)CC(N2CCOCC2)C3)cc1 (centres undefined)	–	–	> 10000	inhibition [4]: 18%
CCc1c(C(=O)c2ccc(OC)cc2)c2cccc3c2n1C(CN1CCOCC1)CO3 (centres undefined)	–	–	–	inhibition at 10 µM [5]: 28%; inhibition [6]: 27%
Cc1c(C(=O)c2ccc(Br)c3ccccc23)c2cccc3c2n1C(CN1CCOCC1)CO3 (centres undefined)	2.32	–	2.2	–
Cc1c(C(=O)c2cccc3ccccc23)c2cccc3c2n1[C@H](CN1CCOCC1)CO3 (stereo in doubt) [WIN-552122]	–	9000	–	IC50 [3]: 0.43 nM
Cc1c(C(=O)c2ccccc2F)c2cccc3c2n1C(CN1CCOCC1)CO3 (centres undefined)	1426	42000	76	–
COc1ccc(C(=O)c2c3n(c4ccccc24)C(CN2CCOCC2)CC3)cc1 (centres undefined)	3053	–	320	–
COc1ccc(C(=O)c2cn3c4c(cccc24)OCC3CN2CCOCC2)cc1 (centres undefined)	249	–	45.5	ED50 [7]: 2 mg/kg; inhibition [6]: -9%
COc1ccc2c(c1)c(CC(=O)O)c(C)n2C(=O)c1ccc(Cl)cc1 [INDOMETHACIN]	–	500	> 10000	–
Cc1c(C(=O)c2cccc3ccccc23)c2cccc3c2n1[C@@H](CN1CCOCC1)CO3	–	10000	> 10000	inhibition in vivo at 100 mg/kg [8]: 10%
COc1ccc(C(=O)c2c(C)n3c4c(cccc24)CC(N2CCOCC2)C3)cc1 (centres undefined)	–	–	> 10000	inhibition in vivo at 100 mg/kg [9]: 30%; inhibition [4]: 12%; inhibition [6]: 1.4%
COc1ccc(C(=O)c2c(C)n3c4c(cccc24)OC[C@H]3CN2CCOCC2)cc1	106	50000	44	–
O=C(c1cccc2ccccc12)c1cn2c3c(cccc13)OCC2CN1CCOCC1 (centres undefined)	7.37	–	2	–
COc1ccc(C(=O)c2c3n(c4ccccc24)CCC3N2CCOCC2)cc1 (centres undefined)	–	–	> 10000	ED50 [7]: 91 mg/kg; inhibition [4]: 49%
C[C@H](CCCc1ccccc1)Oc1cc(O)c2c(c1)N[C@@H](C)[C@@H]1CC[C@@H](O)C[C@@H]21	0.46	–	2.3	–
Cc1c(C(=O)c2cccc3c(Br)cc(Br)cc23)c2cccc3c2n1[C@H](CN1CCOCC1)CO3	48.3	–	–	–
COc1ccc(C(=O)c2c(C)n(CCN3CCOCC3)c3ccccc23)cc1 [PRAVADOLINE]	3155	5000	453	ED50 [7]: 26 mg/kg; ED50 [10]: 4 mg/kg
Cc1c(C(=O)c2cccc3ccccc23)c2cccc3c2n1[C@H](CN1CCOCC1)CO3 (stereo in doubt; 21) [WIN-552122]	–	–	–	IC50 [3]: 6 nM
COc1ccc(C(=O)c2c(C)n3c4c(cccc24)OC[C@@H]3CN2CCOCC2)cc1	17500	30000	> 10000	–
COc1ccc(C(=O)c2c(C)n3c4c(cccc24)OCC3CN2CCOCC2)cc1 (centres undefined)	152	72000	123	inhibition in vivo at 100 mg/kg [8]: 30%; IC50 [11]: 4000 nM
